Assay results reported in patent US8618284B2 (Wyeth LLC, priority 2008, dated 2013).

Assays:
[1] = upon contact with a solvent or solvent mixture (e.g., ethyl acetate and ethanol); cited from earlier work
[2] = in some drug formulations; cited from earlier work
[3] = aqueous and organic solvent systems, Form A compared with Form B; cited from earlier work
[4] = Granulation effect on the polymorphic transformation of Form A; assay type: physicochemical; conditions: dry industrial batch of Form A; for % Form B after granulation: after industrial granulation; for % Form B prior to granulation: before industrial granulation
[5] = system: MCF-7 cell line (human breast cancer cell line); conditions: cited from earlier work
[6] = system: preclinical models of uterine stimulation; conditions: cited from earlier work
[7] = system: ovariectomized rat model of osteopenia; conditions: cited from earlier work

Cc1c(-c2ccc(O)cc2)n(Cc2ccc(OCCN3CCCCCC3)cc2)c2ccc(O)cc12 [Form A, 1-[4-(2-azepan-1-yl-ethoxy)-benzyl]-2-(4-hydroxy-phenyl)-3-methyl-1H-indol-5-ol acetic acid]
conversion of Form A to Form B [1]: can easily convert to Form B | bioavailability [2]: better bioavailability | solubility [3]: higher solubility

Cc1c(-c2ccc(O)cc2)n(Cc2ccc(OCCN3CCCCCC3)cc2)c2ccc(O)cc12 [batch 8.4]
% Form B after granulation ([4]; listed as 8.4): 0.2% | % Form B prior to granulation ([4]; listed as 8.4): 0.3%

Cc1c(-c2ccc(O)cc2)n(Cc2ccc(OCCN3CCCCCC3)cc2)c2ccc(O)cc12 [batch 8.5]
% Form B after granulation ([4]; listed as 8.5): 0.6% | % Form B prior to granulation ([4]; listed as 8.5): 0.5%

Cc1c(-c2ccc(O)cc2)n(Cc2ccc(OCCN3CCCCCC3)cc2)c2ccc(O)cc12 [batch 8.6]
% Form B after granulation ([4]; listed as 8.6): 0.1%

Cc1c(-c2ccc(O)cc2)n(Cc2ccc(OCCN3CCCCCC3)cc2)c2ccc(O)cc12 [batch 8.7]
% Form B after granulation ([4]; listed as 8.7): 0.2% | % Form B prior to granulation ([4]; listed as 8.7): 0.3%

Cc1c(-c2ccc(O)cc2)n(Cc2ccc(OCCN3CCCCCC3)cc2)c2ccc(O)cc12 [bazedoxifene acetate, 1-[4-(2-azepan-1-yl-ethoxy)-benzyl]-2-(4-hydroxy-phenyl)-3-methyl-1H-indol-5-ol acetic acid]
estrogen antagonist behaviour [5]: behaves as an estrogen antagonist | stimulation of uterine response [6]: little or no stimulation of uterine response | effect in preventing bone loss and reducing cholesterol [7]: estrogen agonist-like effect
